From article PMC8406319, “The dCache Chemoreceptor TlpA of Helicobacter pylori Binds Multiple Attractant and Antagonistic Ligands via Distinct Sites” (mBio, 2021)
Counter-ions that a name gives are not always drawn. Like-named read-outs stand apart in the source and are kept apart here.

Legend:
[1] = tested on: TlpALBD; assay: Small-molecule ligand binding array; set-up: species or system Helicobacter pylori SS1; settings: ligand binding array screen; n = 3; note: key: + for positive binding; +/− for intermediate binding; − for no binding
Description: Small-molecule arrays were prepared and performed as previously described ([57]). Briefly, 1 μg of purified TlpALBD in phosphate-buffered saline (PBS) (pH 7.2) was incubated with a molar concentration ratio (4:2:1) of anti-His antibody (Cell Signaling), followed by incubation with a secondary antibody (Thermo Scientific) for signal amplification. The protein-antibody mix was added to an Arrayit Superepoxy III glass substrate array blocked with PBS (pH 7.2) with 1% bovine serum albumin. […] Unbound protein was washed away with PBS with 0.05% Tween. […] Three biological replicates were performed, with a total of 12 data points for each glycan tested. Binding was classified as positive for a ligand if the relative fluorescence unit value was >1-fold above the mean background (defined as the average background of negative-control spots plus 3 standard deviations [SD]) and was statistically significant (P < 0.005 by Student’s t test). Small-molecule array slide preparation and analysis were done according to MIRAGE guidelines ([58]) (outlined in Table S5).
Classification Guidelines
1. Sample: Glycan Binding Sample
Origin: Helico bact er pyl ori SS1; produce d as a reco mbinant His -tagged protein in E.
The preparation of TlpA is exp lained in the Materials and Methods se ct ion: TlpA co nst ruct desi gn and protein purifica tion.
Sample Sample is a His Tagged protein co ntaining only the periplasm ic rece ptor domain, amino […]
Please see Materials and Methods: Li ga nd bi ndi ng arra y.
Proteins were co mplexe d with mouse anti-his antibody, with se co ndary and tertiary Alexa Fluor555 antibodies (rabbit anti-mouse , goat anti-rabbit) at a molar ratio of 4:2:1.
The protein/antibody co mplex was incu bated on ice for 10 mins prior to placi ng on the Assa y array. Arrays were performed with 1 µg of co mplexe d protein incu bated on the array for protoco l 20 min. Arrays were then wash ed 3 times in Array PBS (PBS + 2 mM MgCl2 + 2 mM CaCl2) then dried by ce ntrifugation for 3 min at 300 x g. Sca nning was performed usi ng an Innopsys InnoSca n 1100AL and analyze d usi ng Mapix (Innopsy s). Yes/ no binding was determined by si x posi tive replica te sp ots in three replica te exp eriments. […]
2.2 Small molecule Library […]
descr iption for Compounds printed in the amino aci d/small molecu le array for this st udy are list ed in […]
5.2 Small molecule array with “Map”
The array co nsi sts of triplica te su b-arrays of amino aci ds and sm all moleucl es (24 rows x 10 co lumns) with 400μm sp ot sp aci ng (ce ntre to ce ntre) with a minimum sp ot si ze of 100μm . Each sa mple is printed si x times, with each of the 3 su b-arrays incl uding at least Array layo ut si x negative co ntrol sa mples (print so lution only) and a posi tive co ntrol sa mples […]
Posi tive co ntrols provi de proof of su cce ssf ul immobiliza tion of the amine reagents and provi des for orientation for analysi s.
Sample Arrays are quality co ntrolled by a range of measu res. 1. Each printed array is post print identifica tion sca nned to co nfirm deposi tion of the sa mples on the array su rface prior to neutraliza tion and quality of the remaining sl ide su rface . 2. Post neutralize d sl ides are sca nned again to monitor co ntrol for remaining autofluoresce nce .
1. 6. Detector and Data Processing
Sca nning reso lution: […]
Sca n powers: Low lase r power. […]
analysi s Innopsys MAPIX.

[2] = biological target: T1, TlpAM183A (Helicobacter pylori, UniProt O24925, M183A); assay: biochemical
T1 sequence (O24925 28-299 M183A): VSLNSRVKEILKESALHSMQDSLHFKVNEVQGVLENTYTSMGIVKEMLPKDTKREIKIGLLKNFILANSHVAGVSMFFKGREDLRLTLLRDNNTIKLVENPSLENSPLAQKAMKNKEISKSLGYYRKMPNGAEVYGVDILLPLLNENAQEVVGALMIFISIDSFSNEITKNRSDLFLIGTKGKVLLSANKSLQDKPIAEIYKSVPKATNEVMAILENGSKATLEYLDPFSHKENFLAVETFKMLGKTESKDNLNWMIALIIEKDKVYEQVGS
Text: (§1) The periplasmic portion of TlpA (TlpALBD), amino acids 28 to 299, from Helicobacter pylori SS1 was cloned into a pBH4 expression vector (pBH4_TlpALBD) to generate an N-terminal 6×His-tagged construct, with a tobacco etch virus (TEV) protease site, under the control of isopropyl-β-D-thiogalactopyranoside (IPTG) ([19]). […] TlpALBD and all point mutants were purified as described previously by Sweeney et al. ([19]).
(§2) Purified TlpALBD was immobilized on a CM5 series S sensor chip, and binding affinities were tested using a Biacore S200 instrument (GE Healthcare) as described previously ([39], [57], [59]). Briefly, proteins were captured using an amine-coupling kit (GE Healthcare), in which the carboxylmethyl dextran matrix of the sensor chip was activated by the injection of a mixture of 0.2 M 1-ethyl-3-[(3-dimethylamino)propyl]-carbodiimide (EDC) and 0.05 M N-hydroxysuccinimide (NHS), followed by the neutralization of the remaining unreacted NHS ester groups by the injection of 1 M ethanolamine-HCl (pH 8.0). Purified TlpALBD was diluted in 10 mM sodium acetate buffer (pH 4.5) at a concentration of 100 μg/ml for immobilization to the chip. A total of 8,400 response units (RU) of TlpALBD were captured on flow cell 2. As a negative control, flow cell 1 was a blank control undergoing the same treatment as the other flow paths, without the protein injection. This set enabled double-reference subtraction of the responses (2 − 1, 3 − 1, and 4 − 1). The tested compounds were prepared as a stock concentration of 100 to 200 mM in PBS. The compounds were then diluted between 1 nM and 1 mM in a series of 1:10 dilutions in PBS and run over the flow cells at a flow rate of 30 μl/min. Between each sample testing, a series of buffer-only injections was run to enable double-blank subtraction for the sensorgram assessment. […] The data sets were analyzed using Biacore S200 evaluation software 2.0.2; sensorgrams were double-reference subtracted.

[3] = biological target: T2, TlpAY228A (Helicobacter pylori, UniProt O24925, Y228A); assay: biochemical
T2 sequence (O24925 28-299 Y228A): T1 sequence (O24925 28-299 M183A)
Text: as §1, §2

[4] = biological target: T3, TlpAD165A (Helicobacter pylori, UniProt O24925, D165A); assay: biochemical
T3 sequence (O24925 28-299 D165A): T1 sequence (O24925 28-299 M183A)
Text: as §1, §2

[5] = biological target: T4, TlpAY252A (Helicobacter pylori, UniProt O24925, Y252A); assay: biochemical
T4 sequence (O24925 28-299 Y252A): T1 sequence (O24925 28-299 M183A)
Text: as §1, §2

[6] = biological target: T5, TlpALBD (TlpAWT) (Helicobacter pylori, UniProt O24925); assay: biochemical; settings: SPR
T5 sequence (O24925 28-299): T1 sequence (O24925 28-299 M183A)
Text: as §1, §2

[7] = biological target: T6, TlpAD254A (Helicobacter pylori, UniProt O24925, D254A); assay: biochemical
T6 sequence (O24925 28-299 D254A): T1 sequence (O24925 28-299 M183A)
Text: as §1, §2

[8] = Mean binding affinity ± SD, Table 1, n = 3
[9] = dissociation constant [Kd], WT TlpALBD

| Compound | Array result [1] | Kd [2] | Kd [3] | Kd [4] | Kd [5] | Kd [6, 8] | Kd [6, 9] | Kd [7] | Effect of TlpAD254A mutation on binding ([7]; membrane-proximal mutant vs WT) | Kd ([3]; read-out: Mean binding affinity ± SD, TlpAY228A, SPR, membrane-proximal mutant, n = 3) |
| --- | --- | --- | --- | --- | --- | --- | --- | --- | --- | --- |
| N=C(N)NCCC[C@H](N)C(=O)O [Arginine, L-arginine monohydrochloride] | + | 22.3 ± 5.9 µM | 8.3 ± 1.6 µM | 12.4 ± 0.84 µM | 4.96 ± 1.8 µM | 2 ± 0.11 µM | < 10 µM | 3.71 ± 0.73 µM |  |  |
| N[C@@H](CS)C(=O)O [Cysteine, L-cysteine hydrochloride monohydrate] | +/− | 36.1 ± 15.7 µM | 15.7 ± 6.6 µM | 41.9 ± 0.4 µM | 5.5 ± 0.8 µM | 4.7 ± 0.3 µM | < 10 µM | 4.58 ± 1.5 µM |  |  |
| O=C(O)/C=C/C(=O)O [Fumarate, sodium fumarate] | + | 106 ± 36.6 µM | 46.6 ± 3.9 µM | 100 ± 38.9 µM | 8.5 ± 1.7 µM | 10 ± 1.53 µM | < 10 µM | 44 ± 8.1 µM | affected only fumarate binding |  |
| N[C@H]1C(O)O[C@H](CO)[C@@H](O)[C@@H]1O (stereo partly drawn) [Glucosamine, D(+)-glucosamine hydrochloride] | + | 94.6 ± 57.3 µM |  | 96 ± 24.3 µM | 2.96 ± 0.7 µM | 10.5 ± 2.8 µM | < 10 µM | 9.84 ± 3.7 µM |  | 17.1 µM |
| O=C(O)C[C@H](O)C(=O)O [Malic acid, L-malic acid] | +/− | 33.6 ± 6.2 µM | 28.6 ± 9.4 µM | 11.9 ± 4.3 µM | 14.2 ± 6.2 µM | 46 ± 17 µM | > 45 µM | 29.3 ± 2 µM |  |  |
| Cc1ncc(C[n+]2csc(CCO)c2C)c(N)n1 [Thiamine, thiamine hydrochloride] | +/− | 18.1 ± 1.2 µM | 29.5 ± 12.3 µM | 43.9 ± 14.1 µM | 35 ± 7.3 µM | 60 ± 0.6 µM | > 45 µM | 39.3 ± 4.3 µM |  |  |
